Like-named read-outs stand apart in the source and are kept apart here.
Experiments:
CDK1B = CDK1B (Homo sapiens, UniProt P06493); test: Kinase assay CDK1B (radiometric profiling service); assay type: biochemical; conditions: for Ki: apparent Ki calculated from Km (ATP) and IC50, read-out: CDK inhibition Ki CDK1B
Summary of the method: (§1)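 Radiometric inhibition data for CDKs came from Eurofins or Reaction Biology profiling services; CDK4/D1 was also run in-house by ADP-Glo in […] pH 7.5, 20 mM MgCl2, 0.4 mM DTT, 0.1 mg/ml BSA with RB-CTF substrate, 40 min at 37 °C after ATP start. Ten-point 1:3 dilutions (10 μM–0.5 nM); four-parameter IC50, Ki from IC50 and ATP Km.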

CDK 2A = CDK 2A (Homo sapiens, UniProt P24941); test: Kinase assay CDK2A (radiometric profiling service); assay type: biochemical; conditions: for Ki: apparent Ki calculated from Km (ATP) and IC50, read-out: CDK inhibition Ki CDK 2A
Summary of the method: as §1

CDK4D1 = target: T1, CDK4D1 (Homo sapiens, UniProt P11802); test: Kinase assay CDK4/D1 (radiometric or ADP Glo); assay type: biochemical; conditions: apparent Ki calculated from Km (ATP) and IC50; read-out: CDK inhibition Ki CDK4D1
T1 construct: purchased Eurofins Pharma Discovery or Reaction Biology Corporation (service)
T1 sequence (P11802 whole entry): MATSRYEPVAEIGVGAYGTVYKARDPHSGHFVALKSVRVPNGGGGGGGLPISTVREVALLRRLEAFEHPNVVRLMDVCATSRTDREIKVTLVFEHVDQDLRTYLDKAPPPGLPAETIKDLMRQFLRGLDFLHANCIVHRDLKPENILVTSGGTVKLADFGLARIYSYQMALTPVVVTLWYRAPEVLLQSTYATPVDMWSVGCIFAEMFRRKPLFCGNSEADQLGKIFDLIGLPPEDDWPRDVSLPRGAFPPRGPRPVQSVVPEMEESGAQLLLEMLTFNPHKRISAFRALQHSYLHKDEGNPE
T1 sequence (P24385 whole entry partner): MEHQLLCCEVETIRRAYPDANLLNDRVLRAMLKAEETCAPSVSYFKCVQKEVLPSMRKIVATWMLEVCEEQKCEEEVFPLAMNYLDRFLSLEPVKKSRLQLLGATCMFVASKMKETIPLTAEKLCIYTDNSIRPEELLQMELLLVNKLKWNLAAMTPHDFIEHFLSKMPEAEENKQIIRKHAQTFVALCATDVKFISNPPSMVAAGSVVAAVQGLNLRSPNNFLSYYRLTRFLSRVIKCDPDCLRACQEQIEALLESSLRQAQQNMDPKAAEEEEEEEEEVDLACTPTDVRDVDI
Summary of the method: as §1

CDK6D3 = target: T2, CDK6D3 (Homo sapiens, UniProt Q00534); test: Kinase assay CDK6/D3 (radiometric or ADP Glo); assay type: biochemical; conditions: apparent Ki calculated from Km (ATP) and IC50; read-out: CDK inhibition Ki CDK6D3
T2 construct: purchased Eurofins Pharma Discovery or Reaction Biology Corporation (service)
T2 sequence (Q00534 whole entry): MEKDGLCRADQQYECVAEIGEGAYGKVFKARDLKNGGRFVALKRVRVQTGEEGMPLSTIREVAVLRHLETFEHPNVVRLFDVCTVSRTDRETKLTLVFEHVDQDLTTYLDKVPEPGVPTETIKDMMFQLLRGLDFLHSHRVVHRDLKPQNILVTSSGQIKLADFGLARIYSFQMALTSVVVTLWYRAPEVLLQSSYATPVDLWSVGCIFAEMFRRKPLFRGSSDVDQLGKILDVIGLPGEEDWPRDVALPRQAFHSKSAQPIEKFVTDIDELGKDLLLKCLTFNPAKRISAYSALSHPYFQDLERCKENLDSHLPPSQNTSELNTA
T2 sequence (P30281 whole entry partner): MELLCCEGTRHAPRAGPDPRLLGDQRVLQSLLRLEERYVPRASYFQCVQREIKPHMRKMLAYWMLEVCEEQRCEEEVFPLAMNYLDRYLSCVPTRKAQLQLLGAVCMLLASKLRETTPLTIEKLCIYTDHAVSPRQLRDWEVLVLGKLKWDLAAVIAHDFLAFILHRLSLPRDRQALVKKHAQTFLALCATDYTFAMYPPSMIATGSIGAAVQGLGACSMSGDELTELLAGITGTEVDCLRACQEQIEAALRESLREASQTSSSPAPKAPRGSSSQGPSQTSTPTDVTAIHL
Summary of the method: as §1

CDK7H = CDK7H (Homo sapiens, UniProt P50613); test: Kinase assay CDK7H (radiometric profiling service); assay type: biochemical; conditions: for Ki: apparent Ki calculated from Km (ATP) and IC50, read-out: CDK inhibition Ki CDK7H
CDK7H, sequence (P50613 whole entry): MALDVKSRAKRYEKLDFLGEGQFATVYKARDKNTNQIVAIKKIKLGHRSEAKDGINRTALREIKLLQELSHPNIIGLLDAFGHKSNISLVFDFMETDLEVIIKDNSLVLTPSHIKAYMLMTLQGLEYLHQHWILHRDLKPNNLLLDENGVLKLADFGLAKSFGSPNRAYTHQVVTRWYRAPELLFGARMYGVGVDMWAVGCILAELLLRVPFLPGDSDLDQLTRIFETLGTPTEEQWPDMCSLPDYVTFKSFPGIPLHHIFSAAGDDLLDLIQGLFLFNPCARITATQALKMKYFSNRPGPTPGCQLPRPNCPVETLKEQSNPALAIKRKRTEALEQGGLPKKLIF
CDK7H, sequence (P51946 whole entry partner): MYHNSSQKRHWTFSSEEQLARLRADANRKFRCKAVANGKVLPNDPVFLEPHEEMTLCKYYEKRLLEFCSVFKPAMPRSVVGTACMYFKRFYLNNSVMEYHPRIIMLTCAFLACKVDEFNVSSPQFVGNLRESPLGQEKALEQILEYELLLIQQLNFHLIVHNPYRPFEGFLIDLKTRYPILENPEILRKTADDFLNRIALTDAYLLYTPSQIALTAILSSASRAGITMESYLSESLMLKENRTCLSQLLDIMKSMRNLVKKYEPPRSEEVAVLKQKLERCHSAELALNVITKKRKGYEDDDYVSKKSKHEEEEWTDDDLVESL
CDK7H, sequence (P51948 whole entry partner): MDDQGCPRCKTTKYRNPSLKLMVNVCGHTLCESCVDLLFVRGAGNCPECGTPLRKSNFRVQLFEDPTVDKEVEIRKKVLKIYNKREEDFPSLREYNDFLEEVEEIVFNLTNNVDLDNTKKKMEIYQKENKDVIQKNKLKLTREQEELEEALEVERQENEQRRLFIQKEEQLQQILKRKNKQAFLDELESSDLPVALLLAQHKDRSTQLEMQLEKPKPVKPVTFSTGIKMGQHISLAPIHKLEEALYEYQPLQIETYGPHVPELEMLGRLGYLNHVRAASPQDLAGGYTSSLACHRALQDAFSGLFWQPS
Summary of the method: as §1

CDK9T1 = target: T3, CDK9T1 (Homo sapiens, UniProt P50750); test: Kinase assay CDK9/T1 (radiometric or ADP Glo); assay type: biochemical; conditions: apparent Ki calculated from Km (ATP) and IC50; read-out: CDK inhibition Ki CDK9T1
T3 construct: purchased Eurofins Pharma Discovery or Reaction Biology Corporation (service)
T3 sequence (P50750 whole entry): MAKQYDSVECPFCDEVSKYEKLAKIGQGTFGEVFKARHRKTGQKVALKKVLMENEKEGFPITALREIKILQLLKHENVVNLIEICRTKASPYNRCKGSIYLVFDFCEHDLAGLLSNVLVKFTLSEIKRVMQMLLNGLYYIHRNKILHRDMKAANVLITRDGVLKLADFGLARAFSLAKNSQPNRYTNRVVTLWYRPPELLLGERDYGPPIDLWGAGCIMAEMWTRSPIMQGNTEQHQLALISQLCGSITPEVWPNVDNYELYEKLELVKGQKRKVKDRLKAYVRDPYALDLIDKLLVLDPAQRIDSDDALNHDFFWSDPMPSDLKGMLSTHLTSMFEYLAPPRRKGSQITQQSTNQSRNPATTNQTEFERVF
T3 sequence (O60563 whole entry partner): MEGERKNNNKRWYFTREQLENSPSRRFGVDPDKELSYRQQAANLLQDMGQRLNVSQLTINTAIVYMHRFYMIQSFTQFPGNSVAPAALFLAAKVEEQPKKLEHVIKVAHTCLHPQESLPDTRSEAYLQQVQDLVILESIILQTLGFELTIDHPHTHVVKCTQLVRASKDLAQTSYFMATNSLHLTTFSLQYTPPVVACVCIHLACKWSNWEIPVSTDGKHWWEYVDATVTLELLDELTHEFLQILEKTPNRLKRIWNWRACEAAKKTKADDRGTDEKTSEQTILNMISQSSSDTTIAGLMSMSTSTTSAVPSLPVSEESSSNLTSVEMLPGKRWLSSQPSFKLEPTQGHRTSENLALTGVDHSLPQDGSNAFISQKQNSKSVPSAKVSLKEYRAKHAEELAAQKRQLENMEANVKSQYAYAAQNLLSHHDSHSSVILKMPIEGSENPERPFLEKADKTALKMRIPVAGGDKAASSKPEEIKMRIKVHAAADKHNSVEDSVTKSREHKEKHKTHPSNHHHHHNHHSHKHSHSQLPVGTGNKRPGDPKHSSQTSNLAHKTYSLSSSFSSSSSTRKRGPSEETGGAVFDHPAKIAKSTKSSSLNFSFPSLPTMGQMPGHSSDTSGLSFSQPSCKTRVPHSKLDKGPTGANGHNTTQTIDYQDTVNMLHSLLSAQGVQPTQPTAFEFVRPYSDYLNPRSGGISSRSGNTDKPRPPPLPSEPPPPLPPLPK
Summary of the method: as §1

MV4-11 = test: Cell viability assay (resazurin, leukemia cell line) MV4-11; assay type: cell-based, human
Excerpt: (§2) Compounds from Example 1 were subjected to a standard MTT (3-(4,5-dimethylthiazol-2-yl)-2,5-diphenyltetrazolium bromide) and resazurin assays on solid tumour cell lines and leukemia cell lines, respectively, as previously reported (Wang S et al., J Med Chem 47:1662-1675, 2004 and Diab S. et al. CheMedChem 9:962-972, 2014).

MDA-MB-453 = test: Cell viability assay (MTT, solid tumour cell line) MDA-MB-453; assay type: cell-based, human
Excerpt: as §2

A2780 = test: Cell viability assay, ovarian A2780; assay type: cell-based; conditions: Homo sapiens, read-out: Antiproliferative activity GI50 A2780
Excerpt: as §2

D458 = test: Cell viability assay, medulloblastoma D458; assay type: cell-based; conditions: Homo sapiens, 72 h, read-out: Antiproliferative activity GI50 D458
Excerpt: as §2

D283 = test: Cell viability assay, medulloblastoma D283; assay type: cell-based; conditions: Homo sapiens, read-out: Antiproliferative activity GI50 D283
Excerpt: as §2

[1] = Homo sapiens, MV4-11, 72 h; read-out: Anti-proliferative activity GI50 MV4-11
[2] = Homo sapiens, MDA-MB-453, 72 h; read-out: Anti-proliferative activity GI50 MDA-MB-453

CDK1B, sequence (P06493 whole entry): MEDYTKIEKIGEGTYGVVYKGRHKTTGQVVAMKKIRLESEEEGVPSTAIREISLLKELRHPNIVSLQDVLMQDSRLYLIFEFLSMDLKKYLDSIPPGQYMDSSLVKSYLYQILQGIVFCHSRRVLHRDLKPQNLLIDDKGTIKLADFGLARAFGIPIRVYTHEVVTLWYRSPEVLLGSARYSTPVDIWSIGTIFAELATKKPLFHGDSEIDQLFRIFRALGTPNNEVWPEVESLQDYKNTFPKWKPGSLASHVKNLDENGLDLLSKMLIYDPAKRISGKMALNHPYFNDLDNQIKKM
CDK1B, sequence (P14635 whole entry partner): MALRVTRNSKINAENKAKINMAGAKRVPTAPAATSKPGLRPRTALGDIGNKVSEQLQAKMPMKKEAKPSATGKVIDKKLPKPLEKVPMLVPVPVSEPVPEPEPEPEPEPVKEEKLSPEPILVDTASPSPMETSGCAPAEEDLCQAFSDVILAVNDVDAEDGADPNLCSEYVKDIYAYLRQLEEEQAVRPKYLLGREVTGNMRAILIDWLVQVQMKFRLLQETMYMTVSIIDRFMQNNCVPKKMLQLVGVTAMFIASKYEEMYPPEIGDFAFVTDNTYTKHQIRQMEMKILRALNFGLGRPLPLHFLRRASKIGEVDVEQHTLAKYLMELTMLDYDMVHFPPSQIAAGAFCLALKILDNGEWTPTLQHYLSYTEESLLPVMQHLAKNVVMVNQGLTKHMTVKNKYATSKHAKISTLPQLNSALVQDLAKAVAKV

Row | Structure (SMILES) | Ki (CDK1B) | Ki (CDK 2A) | Ki (CDK4D1) | Ki (CDK6D3) | Ki (CDK7H) | Ki (CDK9T1) | GI50 (MV4-11; Homo sapiens, MV4-11, 72 h, read-out: Anti-proliferative activity GI50 MV4-11) | GI50 (MDA-MB-453; Homo sapiens, MDA-MB-453, 72 h, read-out: Anti-proliferative activity GI50 MDA-MB-453) | GI50 (A2780; A2780, 72 h) | GI50 (D458) | GI50 (D283; D283, 72 h) | GI50 (MV4-11; [1]) | GI50 (MDA-MB-453; [2]) | GI50 (A2780; A2780, 72 h, Ovarian) | GI50 (D458; Medulloblastoma) | GI50 (D283; D283, 72 h, Medulloblastoma) | remaining activity at 10 µM (CDK1B; compound at 10 μM, read-out: % remaining enzymatic activity at 10 μM CDK1B) | remaining activity at 10 µM (CDK 2A; compound at 10 μM, read-out: % remaining enzymatic activity at 10 μM CDK 2A) | remaining activity at 10 µM (CDK7H; compound at 10 μM, read-out: % remaining enzymatic activity at 10 μM CDK7H)
1 | CNc1nc(C)c(-c2ccnc(Nc3ccc(N4CCN(C)CC4)cn3)n2)s1 [Compound 29, N,4-dimethyl-5-(2-((5-(4-methylpiperazin-1-yl)pyridin-2-yl)amino)pyrimidin-4-yl)thiazol-2-amine] | 3210 nM | 650 nM | 5 nM | 50 nM | > 5000 nM | 1820 nM | 297 ± 61 nM | 544 ± 78 nM | 282 ± 58 nM | 326 ± 29 nM | 335 ± 97 nM | – | – | – | – | – | – | – | –
2 | CNc1nc(C)c(-c2nc(Nc3ccc(N4CCN(C)CC4)cn3)ncc2F)s1 [Compound 31, 5-(5-fluoro-2-((5-(4-methylpiperazin-1-yl)pyridin-2-yl)amino)pyrimidin-4-yl)-N,4-dimethylthiazol-2-amine] | > 5000 nM | 365 nM | 2 nM | 10 nM | > 5000 nM | 1910 nM | – | – | – | – | – | 11 ± 4 nM | 381 ± 96 nM | 94 ± 1 nM | 645 ± 97 nM | 489 ± 22 nM | – | – | –
3 | CC(=O)N1CCN(c2ccc(Nc3ncc(F)c(-c4sc(N(C)C)nc4C)n3)nc2)CC1 [Compound 49, 1-(4-(6-((4-(2-(dimethylamino)-4-methylthiazol-5-yl)-5-fluoropyrimidin-2-yl)amino)pyridin-3-yl)piperazin-1-yl)ethan-1-one] | > 5000 nM | 1040 nM | 24 nM | 366 nM | > 5000 nM | > 5000 nM | – | – | – | – | – | 208 ± 30 nM | 2370 ± 26 nM | – | – | – | – | – | –
4 | CNc1nc(C)c(-c2nc(Nc3ccc(N4CCN(S(C)(=O)=O)CC4)cn3)ncc2F)s1 [Compound 52, 5-(5-fluoro-2-((5-(4-(methylsulfonyl)piperazin-1-yl)pyridin-2-yl)amino)pyrimidin-4-yl)-N,4-dimethylthiazol-2-amine] | 580 nM | 76 nM | 37 nM | 297 nM | > 5000 nM | > 5000 nM | – | – | – | – | – | 425 ± 73 nM | 660 ± 92 nM | – | – | – | – | – | –
5 | CNc1nc(C)c(-c2nc(Nc3ccc(N4CCCNCC4)cn3)ncc2F)s1 [Compound 53, 5-(2-((5-(1,4-diazepan-1-yl)pyridin-2-yl)amino)-5-fluoropyrimidin-4-yl)-N,4-dimethylthiazol-2-amine] | 2370 nM | 206 nM | 3 nM | 32 nM | > 5000 nM | 3040 nM | – | – | – | – | – | 80 ± 13 nM | 362 ± 3 nM | – | – | – | – | – | –
6 | Cc1nc(NC(C)C)sc1-c1ccnc(Nc2ccc(N3CCOCC3)cn2)n1 [Compound 58, N-isopropyl-4-methyl-5-(2-((5-morpholinopyridin-2-yl)amino)pyrimidin-4-yl)thiazol-2-amine] | > 5000 nM | 127 nM | 41 nM | 82 nM | > 5000 nM | > 5000 nM | – | – | – | – | – | 32 ± 3 nM | 115 ± 24 nM | – | – | – | – | – | –
7 | Cc1nc(NC2CCCC2)sc1-c1nc(Nc2ccc(N3CCN(C)CC3)cn2)ncc1F [Compound 64] | – | – | – | – | – | – | – | – | – | – | – | 73 ± 28 nM | 202 ± 30 nM | 56 ± 7 nM | 457 ± 171 nM | 77 ± 6 nM | – | – | –
8 | CC(=O)N1CCN(c2ccc(Nc3ncc(F)c(-c4sc(NC5CCCC5)nc4C)n3)nc2)CC1 [Compound 69, 1-(4-(6-((4-(2-(cyclopentylamino)-4-methylthiazol-5-yl)-5-fluoropyrimidin-2-yl)amino)pyridin-3-yl)piperazin-1-yl)ethan-1-one] | > 5000 nM | 228 nM | 34 nM | 23 nM | > 5000 nM | 4990 nM | – | – | – | – | – | 15 ± 2 nM | 8110 ± 1150 nM | – | – | – | – | – | –
9 | FC(F)(F)c1nc(NC2CCCC2)sc1-c1ccnc(Nc2ccc(N3CCOCC3)cn2)n1 [Compound 73, N-cyclopentyl-5-(2-((5-morpholinopyridin-2-yl)amino)pyrimidin-4-yl)-4-(trifluoromethyl)thiazol-2-amine] | > 5000 nM | 154 nM | 8 nM | 11 nM | > 5000 nM | > 5000 nM | – | – | – | – | – | 69 ± 13 nM | 415 ± 103 nM | – | – | – | – | – | –
10 | Cc1nc(NC2CCCC2)sc1-c1ccnc(Nc2ccc(N3CCCCC3)cn2)n1 [Compound 75, N-cyclopentyl-4-methyl-5-(2-((5-(piperidin-1-yl)pyridin-2-yl)amino)pyrimidin-4-yl)thiazol-2-amine] | > 5000 nM | > 5000 nM | 70 nM | 257 nM | > 5000 nM | > 5000 nM | – | – | – | – | – | 191 ± 29 nM | 7040 ± 710 nM | – | – | – | – | – | –
11 | Cc1nc(NC2CCCC2)sc1-c1nc(Nc2ccc(N3CCC(N(C)C)CC3)cn2)ncc1F [Compound 80, N-cyclopentyl-5-(2-((5-(4-(dimethylamino)piperidin-1-yl)pyridin-2-yl)amino)-5-fluoropyrimidin-4-yl)-4-methylthiazol-2-amine] | > 5000 nM | 1150 nM | 1 nM | 31 nM | > 5000 nM | 1090 nM | – | – | – | – | – | 454 ± 40 nM | 356 ± 24 nM | – | – | – | – | – | –
12 | Cc1nc(NC2CCCC2)sc1-c1nc(Nc2ccc(N3CCN(S(C)(=O)=O)CC3)cn2)ncc1F [Compound 82, N-cyclopentyl-5-(5-fluoro-2-((5-(4-(methylsulfonyl)piperazin-1-yl)pyridin-2-yl)amino)pyrimidin-4-yl)-4-methylthiazol-2-amine] | > 5000 nM | 348 nM | 39 nM | 101 nM | > 5000 nM | > 5000 nM | – | – | – | – | – | 2630 ± 582 nM | 2810 ± 89 nM | – | – | – | – | – | –
13 | CC(=O)N1CCN(c2ccc(Nc3nccc(-c4sc(N(C)C5CCCC5)nc4C)n3)nc2)CC1 [Compound 87, 1-(4-(6-((4-(2-(cyclopentyl(methyl)amino)-4-methylthiazol-5-yl)pyrimidin-2-yl)amino)pyridin-3-yl)piperazin-1-yl)ethan-1-one] | 3170 nM | 121 nM | 10 nM | 31 nM | > 5000 nM | > 5000 nM | – | – | – | – | – | 328 ± 7 nM | 6860 ± 798 nM | – | – | – | – | – | –
14 | Cc1nc(Nc2ccccc2)sc1-c1ccnc(Nc2ccc(N3CCN(C)CC3)cn2)n1 [Compound 90, 4-methyl-5-(2-((5-(4-methylpiperazin-1-yl)pyridin-2-yl)amino)pyrimidin-4-yl)-N-phenylthiazol-2-amine] | > 5000 nM | > 5000 nM | 19 nM | 485 nM | > 5000 nM | > 5000 nM | – | – | – | – | – | 508 ± 42 nM | 494 ± 81 nM | – | – | – | – | – | –
15 | Cc1nc(N(C)c2ccccc2)sc1-c1ccnc(Nc2ccc(N3CCN(C)CC3)cn2)n1 [Compound 91, N,4-dimethyl-5-(2-((5-(4-methylpiperazin-1-yl)pyridin-2-yl)amino)pyrimidin-4-yl)-N-phenylthiazol-2-amine] | > 5000 nM | 1040 nM | 26 nM | 100 nM | > 5000 nM | 2000 nM | – | – | – | – | – | 421 ± 44 nM | 150 ± 29 nM | – | – | – | – | – | –
16 | Cc1c(-c2ccnc(Nc3ccc(N4CCN(C)CC4)cn3)n2)sc(=O)n1C [Compound 93, 3,4-dimethyl-5-(2-((5-(4-methylpiperazin-1-yl)pyridin-2-yl)amino)pyrimidin-4-yl)thiazol-2(3H)-one] | – | – | 255 nM | 915 nM | – | 840 nM | – | – | – | – | – | 3720 ± 357 nM | > 10000 nM | – | – | – | 71% | 77% | 52%
17 | CCn1c(C)c(-c2ccnc(Nc3ccc(N4CCN(C)CC4)cn3)n2)sc1=O [Compound 94, 3-ethyl-4-methyl-5-(2-((5-(4-methylpiperazin-1-yl)pyridin-2-yl)amino)pyrimidin-4-yl)thiazol-2(3H)-one] | 3660 nM | 1340 nM | 33 nM | 320 nM | 1260 nM | 1580 nM | – | – | – | – | – | 1830 ± 194 nM | > 10000 nM | – | – | – | – | – | –
